Results as given in patent US20040105861A1, “Use of factor XIIIa inhibitors to treat atherosclerosis” (SmithKline Beecham Corporation, priority 1997, published 2004).

Target: purified human Factor XIIIa (Homo sapiens, UniProt P00488)
Conditions: 10 mM EDTA added in the presence of Factor XIIIa 30 U/ml; fibrinogen 100 μg/ml, Lp(a) 500 μg/ml, 37° C., 30 minutes to 6 hours
Protocol: To determine if Factor XIIIa crosslinks Lp(a) with fibrinogen, Factor XIIIa was incubated with Lp(a) and fibrinogen in solution and then analyzed for Lp(a)-fibrinogen crosslinking over a time course ranging from 30 minutes to 6 hours. Briefly, purified human fibrinogen (Calbiochem, San Diego, Calif.), at a final concentration of 100 μg/ml, was incubated with purified human Lp(a) (Enzyme Research Laboratories, South Bend, Ind.) at a final concentration of 500 μg/ml, in the presence of purified human Factor XIIIa (Enzyme Research Laboratories, South Bend, Ind.) at 30 U/ml. As controls, Factor XIIIa was either omitted from the reaction or 10 mM EDTA was added in the presence of Factor XIIIa to inhibit Factor XIIIa activity. The reactions were conducted at 37° C. in a buffer of 40 mM Tris, 0.15 M NaCl, 5 mM dithiolthreitol, and 10 mM CaC12, at pH 8.3. Factor XIII was preactivated to Factor XIIIa immediately before each experiment by incubating Factor XIII with thrombin at 3 U/ml in 40 mM Tris and 0. 15 M NaCl, at pH 8.3 for 1 hour at room temperature. The activation procedure was stopped by adding hirudin at 100 U/ml (Sigma) to inhibit the thrombin. […]
To identify the presence of Lp(a) within the immunoprecipitated complexes, samples were analyzed by western blot using an antibody to Lp(a). […]

Sequence of purified human Factor XIIIa (P00488 39-732 limits assumed): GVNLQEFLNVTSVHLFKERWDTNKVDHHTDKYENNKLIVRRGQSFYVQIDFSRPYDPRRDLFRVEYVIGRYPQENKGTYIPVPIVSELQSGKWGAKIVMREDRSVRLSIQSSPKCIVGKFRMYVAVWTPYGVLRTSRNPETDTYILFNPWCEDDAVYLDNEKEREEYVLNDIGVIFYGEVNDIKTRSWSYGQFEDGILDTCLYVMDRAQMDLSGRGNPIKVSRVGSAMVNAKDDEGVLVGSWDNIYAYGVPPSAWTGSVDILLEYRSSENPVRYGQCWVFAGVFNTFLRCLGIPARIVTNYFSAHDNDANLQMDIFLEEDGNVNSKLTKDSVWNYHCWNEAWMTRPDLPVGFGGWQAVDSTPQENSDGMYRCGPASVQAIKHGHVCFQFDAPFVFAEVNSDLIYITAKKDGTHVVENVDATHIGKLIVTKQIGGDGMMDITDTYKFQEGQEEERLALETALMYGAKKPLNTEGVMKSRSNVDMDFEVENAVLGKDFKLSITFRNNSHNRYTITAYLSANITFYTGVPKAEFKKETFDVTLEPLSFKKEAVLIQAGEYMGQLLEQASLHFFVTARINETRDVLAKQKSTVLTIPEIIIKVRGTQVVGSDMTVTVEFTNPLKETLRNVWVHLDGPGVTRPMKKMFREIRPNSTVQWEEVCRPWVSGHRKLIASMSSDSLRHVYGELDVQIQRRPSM

## O=C(O)CN(CCN(CC(=O)O)CC(=O)O)CC(=O)O [EDTA]
  Lp(a) crosslinked with fibrinogen (Lp(a) in anti-fibrinogen immunoprecipitated material, western blot): Lp(a) was not incorporated in the immunoprecipitated material
